The target in test [1] is T1, Sentrin-specific protease 6 (Homo sapiens, UniProt Q9GZR1).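 Also: Luminescence-based dose-response confirmatory assay of SENP6 inhibition, following up an ultra-high-throughput screen.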
T1 sequence (Q9GZR1 whole entry): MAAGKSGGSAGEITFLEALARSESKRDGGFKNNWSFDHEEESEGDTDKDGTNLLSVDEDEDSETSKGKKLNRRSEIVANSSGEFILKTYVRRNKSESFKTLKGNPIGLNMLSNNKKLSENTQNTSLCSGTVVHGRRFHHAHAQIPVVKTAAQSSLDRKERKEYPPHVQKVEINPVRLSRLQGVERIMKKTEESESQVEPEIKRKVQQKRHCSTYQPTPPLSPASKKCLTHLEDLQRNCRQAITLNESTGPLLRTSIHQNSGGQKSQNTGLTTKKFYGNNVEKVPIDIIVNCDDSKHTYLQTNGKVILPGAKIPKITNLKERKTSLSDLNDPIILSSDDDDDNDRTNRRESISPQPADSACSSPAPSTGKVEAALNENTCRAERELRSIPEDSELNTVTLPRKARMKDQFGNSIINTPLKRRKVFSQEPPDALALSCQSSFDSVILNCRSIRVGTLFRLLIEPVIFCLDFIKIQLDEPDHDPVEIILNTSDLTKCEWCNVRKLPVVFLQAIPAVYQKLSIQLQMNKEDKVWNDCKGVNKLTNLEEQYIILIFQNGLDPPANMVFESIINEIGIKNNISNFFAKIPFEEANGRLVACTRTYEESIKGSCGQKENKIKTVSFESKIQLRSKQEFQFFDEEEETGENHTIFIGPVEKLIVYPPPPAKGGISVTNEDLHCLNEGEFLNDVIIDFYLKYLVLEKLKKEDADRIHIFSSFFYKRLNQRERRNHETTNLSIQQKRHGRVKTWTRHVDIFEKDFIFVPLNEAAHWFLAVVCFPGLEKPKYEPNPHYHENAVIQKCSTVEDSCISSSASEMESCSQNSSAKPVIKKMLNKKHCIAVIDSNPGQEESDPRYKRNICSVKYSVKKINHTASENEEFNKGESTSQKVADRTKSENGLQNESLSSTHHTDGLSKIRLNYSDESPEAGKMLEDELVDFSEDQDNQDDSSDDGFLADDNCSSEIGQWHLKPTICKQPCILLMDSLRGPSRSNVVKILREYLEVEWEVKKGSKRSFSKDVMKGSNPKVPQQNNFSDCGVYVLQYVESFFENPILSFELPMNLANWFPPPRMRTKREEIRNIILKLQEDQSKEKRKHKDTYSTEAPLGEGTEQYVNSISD
The class given is functional.

Test [2] concerns the target T2, Sentrin-specific protease 7 (Homo sapiens, UniProt Q9BQF6).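 Also: Luminescence-based dose-response confirmation of ultra-high-throughput screening hits, measuring inhibition of SENP7.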
T2 sequence (Q9BQF6 whole entry): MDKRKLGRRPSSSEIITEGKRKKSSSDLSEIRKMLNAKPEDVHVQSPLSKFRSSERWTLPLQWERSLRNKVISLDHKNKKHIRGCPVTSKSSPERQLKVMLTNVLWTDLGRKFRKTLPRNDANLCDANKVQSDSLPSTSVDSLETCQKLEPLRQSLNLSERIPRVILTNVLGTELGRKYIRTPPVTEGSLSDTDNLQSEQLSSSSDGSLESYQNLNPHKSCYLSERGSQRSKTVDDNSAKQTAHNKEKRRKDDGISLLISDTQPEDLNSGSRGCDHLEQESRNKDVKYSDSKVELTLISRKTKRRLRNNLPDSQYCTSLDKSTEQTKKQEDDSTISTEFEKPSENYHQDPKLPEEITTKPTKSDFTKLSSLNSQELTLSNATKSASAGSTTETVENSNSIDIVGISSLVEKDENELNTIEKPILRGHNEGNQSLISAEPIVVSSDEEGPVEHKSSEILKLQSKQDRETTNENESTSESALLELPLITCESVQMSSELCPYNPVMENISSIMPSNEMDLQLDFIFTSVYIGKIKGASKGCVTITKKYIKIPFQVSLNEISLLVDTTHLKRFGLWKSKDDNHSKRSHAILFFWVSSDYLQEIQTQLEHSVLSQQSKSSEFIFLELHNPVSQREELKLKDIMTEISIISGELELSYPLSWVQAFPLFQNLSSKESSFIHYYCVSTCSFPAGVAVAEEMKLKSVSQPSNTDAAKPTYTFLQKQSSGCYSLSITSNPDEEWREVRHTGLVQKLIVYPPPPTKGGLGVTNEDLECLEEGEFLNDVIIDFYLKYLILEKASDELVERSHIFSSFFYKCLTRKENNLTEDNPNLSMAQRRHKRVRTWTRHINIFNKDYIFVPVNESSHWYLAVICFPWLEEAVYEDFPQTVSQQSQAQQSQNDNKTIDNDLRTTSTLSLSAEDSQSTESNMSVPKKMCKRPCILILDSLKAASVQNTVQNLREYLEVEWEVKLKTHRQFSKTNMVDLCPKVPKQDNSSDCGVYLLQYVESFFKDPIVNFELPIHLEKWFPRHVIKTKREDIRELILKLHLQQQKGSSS
The class given is functional.

In a further test the test system is Streptococcus. Kind of test: GAS UMAA2166 growth inhibition – luminescence, BacTiterGlo, counter-screen for streptokinase expression inhibitor project, dose response (AID 1915).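 Also: potency for reduction of bacterial viability or growth.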 The class given is functional, organism-based. Background: A counterscreen serves to expose hits that act by an unwanted route or on another target.
The target in the next test is Beta-galactosidase (Escherichia coli, UniProt Q8VNN2). Kind of test: PubChem AID 485352. The class given is functional.
Sequence of Beta-galactosidase (Q8VNN2 whole entry): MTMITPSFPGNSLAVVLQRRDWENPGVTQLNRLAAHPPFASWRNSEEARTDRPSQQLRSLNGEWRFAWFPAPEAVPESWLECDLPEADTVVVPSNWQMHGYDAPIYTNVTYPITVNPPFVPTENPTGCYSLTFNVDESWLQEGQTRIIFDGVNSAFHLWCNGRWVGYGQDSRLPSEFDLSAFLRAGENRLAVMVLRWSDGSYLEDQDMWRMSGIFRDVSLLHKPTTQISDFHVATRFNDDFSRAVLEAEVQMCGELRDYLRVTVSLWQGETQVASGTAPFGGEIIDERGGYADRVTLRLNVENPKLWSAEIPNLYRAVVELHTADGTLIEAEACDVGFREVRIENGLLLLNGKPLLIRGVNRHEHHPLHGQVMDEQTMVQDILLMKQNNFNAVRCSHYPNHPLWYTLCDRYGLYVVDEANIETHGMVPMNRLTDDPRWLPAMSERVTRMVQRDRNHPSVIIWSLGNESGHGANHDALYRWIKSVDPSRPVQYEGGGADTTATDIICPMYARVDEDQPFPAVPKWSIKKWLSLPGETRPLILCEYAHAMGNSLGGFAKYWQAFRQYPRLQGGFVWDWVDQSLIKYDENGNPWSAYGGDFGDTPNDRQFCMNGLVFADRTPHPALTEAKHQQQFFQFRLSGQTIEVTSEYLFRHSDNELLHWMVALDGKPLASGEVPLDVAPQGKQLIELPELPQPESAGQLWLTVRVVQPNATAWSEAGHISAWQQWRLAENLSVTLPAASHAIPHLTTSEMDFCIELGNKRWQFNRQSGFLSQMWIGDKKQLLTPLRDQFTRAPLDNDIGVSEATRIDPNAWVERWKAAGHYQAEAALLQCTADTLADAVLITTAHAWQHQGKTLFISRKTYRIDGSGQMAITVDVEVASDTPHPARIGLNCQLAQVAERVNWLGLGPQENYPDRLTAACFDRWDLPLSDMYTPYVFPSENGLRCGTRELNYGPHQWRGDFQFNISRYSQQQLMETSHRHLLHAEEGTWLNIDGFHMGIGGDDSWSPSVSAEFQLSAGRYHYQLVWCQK

The structures appear in SMILES notation. Activity calls are given as the source filed them.

The IC50 is the concentration that gives 50% inhibition. Usually EC50 stands for the concentration needed to bring the measured effect to its halfway point.

`CCCC[n+]1ccn(C2=C([N-]S(=O)(=O)c3ccc(Cl)cc3)C(=O)c3ccccc3C2=O)c1`: the IC50 in test [1] is 12.4 µM (active); in test [2] it was 22 µM (active).
As for `CC(=O)c1cccc2c1N=C(c1[nH]c3ccccc3c1O)C2=O`, the IC50 in test [1] was 13.2 µM (active); in test [2], 15.7 µM (active). Further, the EC50 with Streptococcus was > 150 µM (not active).
In the case of `CCC1CCCCN1S(=O)(=O)c1ccc(NC(=O)c2nc(S(C)(=O)=O)ncc2Cl)cc1` (configuration not stated), the EC50 with Streptococcus is 13.2 µM (active); at Beta-galactosidase, > 40 µM (inactive).

These data come from ChEMBL document CHEMBL1201862, “PubChem BioAssay data set” (2004).
